Data published in patent US12263248B2, “Compounds and compositions for intracellular delivery of therapeutic agents” (ModernaTX, Inc., priority 2018, dated 2025).

Tests used:
[1] = Encapsulation efficiency of RNA (QUANT-IT RIBOGREEN RNA assay); assay type: physicochemical
Protocol: For nanoparticle compositions including an RNA, a QUANT-IT™ RIBOGREEN® RNA assay (Invitrogen Corporation Carlsbad, CA) can be used to evaluate the encapsulation of an RNA by the nanoparticle composition. The samples are diluted to a concentration of approximately […] in a TE buffer solution (10 mM Tris-HCl, 1 mM EDTA, pH 7.5). 50 μL of the diluted samples are transferred to a polystyrene 96 well plate and either 50 μL of TE buffer or 50 μL of a 2% Triton X-100 solution is added to the wells. The plate is incubated at a temperature of 37° C. for 15 minutes. The RIBOGREEN® reagent is diluted 1:100 in TE buffer, and 100 μL of this solution is added to each well. The fluorescence intensity can be measured using a fluorescence plate reader (Wallac Victor 1420 Multilabel Counter; Perkin Elmer, Waltham, MA) at an excitation wavelength of, for example, about 480 nm and an emission wavelength of, for example, about 520 nm. The fluorescence values of the reagent blank are subtracted from that of each of the samples and the percentage of free RNA is determined by dividing the fluorescence intensity of the intact sample (without addition of Triton X-100) by the fluorescence value of the disrupted sample (caused by the addition of Triton X-100).

[2] = test system: luciferase (Luc) mRNA; assay: Luc expression in liver, lung, spleen and femur 6 hours after intravenous administration; assay type: in vivo; conditions: mice, 0.5 mpk; for Total Flux Liver / Total Flux Lung / Total Flux Spleen: intravenous; for Flux in the spleen / Flux in the liver: i.v., in words
Protocol: The efficacy of the nanoparticle compositions presented in Table 1A was further evaluated by measuring the expression of modified luciferase in the liver, lung, spleen, and femur upon administration of a given composition. Formulations were administered intravenously to mice (n=3) at a dosage of 0.5 mpk and bioluminescence measured after 6 hours. The standard MC3 formulation and a PBS control were also tested. […] Flux in the liver was lowest for compositions including Compounds 58, 59, 137, and 141. Flux in the spleen was highest for compositions including Compounds 4, 7, 33, 34, 48, 53, 108, 129, 130, and 148, and lowest for compositions including Compounds 9, 59, 124, and 141.
(§1) Whole body and ex vivo organ bioluminescent imaging of mice: CD-1 mice were injected 15 minutes prior to the imaging timepoint intraperitoneally (IP) with 200 μL Xenolight D-luciferin K+ salt, diluted in PBS just prior to use to a concentration of 15 mg/mL. Ex vivo imaging of organs was completed within 25 minutes of luciferin administration. All images were quantified by region of interest for total flux.

[3] = Particle size and polydispersity index of nanoparticle compositions (Zetasizer Nano ZS); assay type: physicochemical
Protocol: A Zetasizer Nano ZS (Malvern Instruments Ltd, Malvern, Worcestershire, UK) can be used to determine the particle size, the polydispersity index (PDI) and the zeta potential of the nanoparticle compositions in 1×PBS in determining particle size and 15 mM PBS in determining zeta potential.

[4] = test system: luciferase (Luc) mRNA; assay: Luc expression, whole body bioluminescence after intravenous administration to mice; assay type: in vivo; conditions: for Fold increase in total body Luc Flux relative to MC3 at 6 h: Table 3A; for Total Flux 3 hours / Total Flux 6 hours / Total Flux 24 hours: Luc mRNA; for flux at all timepoints measured: 3, 6 and 24 hour, in words
Protocol: In order to monitor how effectively various nanoparticle compositions deliver therapeutic and/or prophylactics to targeted cells, different nanoparticle compositions including a particular therapeutic and/or prophylactic (for example, a modified or naturally occurring RNA such as an mRNA) are prepared and administered to rodent populations. Mice are intravenously, intramuscularly, intraarterially, or intratumorally administered a single dose including a nanoparticle composition with a formulation such as those provided in Example 3. In some instances, mice may be made to inhale doses. Dose sizes may range from 0.001 mg/kg to 10 mg/kg, where 10 mg/kg describes a dose including 10 mg of a therapeutic and/or prophylactic in a nanoparticle composition for each 1 kg of body mass of the mouse. A control composition including PBS may also be employed.
Upon administration of nanoparticle compositions to mice, dose delivery profiles, dose responses, and toxicity of particular formulations and doses thereof can be measured by enzyme-linked immunosorbent assays (ELISA), bioluminescent imaging, or other methods. For nanoparticle compositions including mRNA, time courses of protein expression can also be evaluated. Samples collected from the rodents for evaluation may include blood, sera, and tissue (for example, muscle tissue from the site of an intramuscular injection and internal tissue); sample collection may involve sacrifice of the animals.
The efficacy of the nanoparticle compositions presented in Table 1A was evaluated with a bioluminescence study. Formulations were administered intravenously to mice (n=6) at a dosage of 0.5 mg/kg (mpk) and bioluminescence measured at 3, 6, and 24 hour time points. The standard MC3 formulation and, in some instances, a control (e.g., a PBS control) were evaluated for comparison. […] In general, flux decreased as time progressed to less than 10% of the initial flux.
as §1

[5] = Table 1A, lipid:DSPC:cholesterol:PEG-DMG 50:10:38.5:1.5 mol %
[6] = Table 1B, formulated with hEPO mRNA

| Structure (SMILES) | EE (%) ([1]; Table 1A) | PDI ([3]; Table 1A) | Size (nm) [3, 5] [nm] | EE (%) [1, 6] [%] | PDI [3, 6] | Size (nm) [3, 6] [nm] | Total Flux Liver [2] | Total Flux Lung [2] | Total Flux Spleen [2] | Fold increase in total body Luc Flux relative to MC3 at 6 h ([4]; i.v. administration) | 6 h Lipid/MC3 Avg. Luc Expression ([4]; Table 3C, i.v. administration) | Fold increase AUC Lipid/MC3 ([4]; Table 3C, i.v. administration) | AUC (h * p/s) ([4]; Table 3C, i.v. administration, Luc) | Total Flux 3 hours ([4]; mice, i.v., 0.5 mg/kg) | Total Flux 6 hours ([4]; mice, i.v., 0.5 mg/kg) | Total Flux 24 hours ([4]; mice, i.v., 0.5 mg/kg) | total flux at 3 hours ([4]; mice, i.v., 0.5 mg/kg, comparison in words) | Flux in the spleen [2] | Flux in the liver [2] | flux at all timepoints measured ([4]; mice, i.v., 0.5 mg/kg) |
| --- | --- | --- | --- | --- | --- | --- | --- | --- | --- | --- | --- | --- | --- | --- | --- | --- | --- | --- | --- | --- |
| CCCCCCCCCOC(=O)CCCCCCCN(CCO)CCCCCCCC(=O)OC(CCCCCC)CCCCCC [Compound 56, nonyl 8-((2-hydroxyethyl)(8-oxo-8-(tridecan-7-yloxy)octyl)amino) octanoate] | 95.18 | 0.17 | 112.1 | – | – | – | 1.04E+09 | 4.62E+06 | 1.98E+08 | 0.733 | – | – | – | 1.27E+10 | 8.06E+09 | 2.53E+08 | – | – | – | – |
| CCCCCCCCC(CCCCCCCC)OC(=O)CCCCCCCN(CCO)CCCC(=O)OCCCCC [Compound 52, heptadecan-9-yl 8-((2-hydroxyethyl)(4-oxo-4-(pentyloxy)butyl)amino) octanoate] | 93.25 | 0.19 | 130.5 | – | – | – | 5.86E+08 | 2.80E+06 | 8.30E+07 | – | – | – | – | 2.91E+09 | 4.63E+09 | 2.55E+07 | – | – | – | – |
| CCCCCCCCC(CCCCCCCC)OC(=O)CCCCCCCN(CCO)CCCC(=O)OCCCCCC [Compound 53, heptadecan-9-yl 8-((4-(hexyloxy)-4-oxobutyl)(2-hydroxyethyl)amino) octanoate] | 95.8 | 0.13 | 125.4 | – | – | – | 2.02E+09 | 2.47E+07 | 8.54E+08 | 2.11 | – | – | – | 1.91E+10 | 2.32E+10 | 1.01E+09 | – | highest | – | – |
| CCCCCCCCC(CCCCCCCC)OC(=O)CCCCCCCN(CCO)CCCCCCCCC1CC1CCCCCCCC (centres unmarked) [Compound 47, heptadecan-9-yl 8-((2-hydroxyethyl)(8-(2-octylcyclopropyl)octyl)amino)octanoate] | 96.40 | 0.10 | 80.6 | – | – | – | 4.86E+09 | 8.71E+06 | 8.33E+07 | – | – | – | – | 6.55E+10 | 5.38E+10 | 2.09E+09 | – | – | – | – |
| CCCCCCCCCOC(=O)CCCCCCCN(CCCCCCCC(=O)OC(CCCCCCCC)CCCCCCCC)CCC(=O)O [Compound 125, 3-((8-(Heptadecan-9-yloxy)-8-oxooctyl)(8-(nonyloxy)-8-oxooctyl)amino)propanoic acid] | 79.6 | 0.16 | 90.9 | – | – | – | – | – | – | – | – | – | – | 2.44E+05 | 3.16E+05 | – | – | – | – | significantly lower flux |
| CCCCCCCCCOC(=O)CCCCCCCN(CCCCCCCC(=O)OC(CCCCCCCC)CCCCCCCC)CCCC(=O)NC [Compound 239, Heptadecan-9-yl 8-((4-(methylamino)-4-oxobutyl)(8-(nonyloxy)-8-oxooctyl)amino)octanoate] | 90.42 | 0.12 | 55.8 | 82.6 | 0.14 | 71.3 | – | – | – | – | – | – | – | – | – | – | – | – | – | – |
| CCCCCCCCC(CCCCCCCC)OC(=O)CCCCCCCN(CCO)CCCC(=O)OCCCC [Compound 51, heptadecan-9-yl 8-((4-butoxy-4-oxobutyl)(2-hydroxyethyl)amino) octanoate] | 89.83 | 0.17 | 148.8 | – | – | – | 2.49E+07 | 3.67E+05 | 2.80E+07 | 0.025 | – | – | – | 1.34E+08 | 2.80E+08 | 6.20E+06 | – | – | – | – |

The next lines start with results.

| EE (%) ([1]; Table 1A) | PDI ([3]; Table 1A) | Size (nm) [3, 5] [nm] | EE (%) [1, 6] [%] | PDI [3, 6] | Size (nm) [3, 6] [nm] | Structure (SMILES) | Total Flux Liver [2] | Total Flux Lung [2] | Total Flux Spleen [2] | Fold increase in total body Luc Flux relative to MC3 at 6 h ([4]; i.v. administration) | 6 h Lipid/MC3 Avg. Luc Expression ([4]; Table 3C, i.v. administration) | Fold increase AUC Lipid/MC3 ([4]; Table 3C, i.v. administration) | AUC (h * p/s) ([4]; Table 3C, i.v. administration, Luc) | Total Flux 3 hours ([4]; mice, i.v., 0.5 mg/kg) | Total Flux 6 hours ([4]; mice, i.v., 0.5 mg/kg) | Total Flux 24 hours ([4]; mice, i.v., 0.5 mg/kg) | total flux at 3 hours ([4]; mice, i.v., 0.5 mg/kg, comparison in words) | Flux in the spleen [2] | Flux in the liver [2] | flux at all timepoints measured ([4]; mice, i.v., 0.5 mg/kg) |
| --- | --- | --- | --- | --- | --- | --- | --- | --- | --- | --- | --- | --- | --- | --- | --- | --- | --- | --- | --- | --- |
| 96.52 | 0.120 | 76.7 | – | – | – | CCCCCCCCC(CCCCCCCC)OC(=O)CCCCCCCN(CCO)CCCCCCCC(=O)OC1CCC(CCCCC)CC1 (centres unmarked) [Compound 66, Heptadecan-9-yl 8-((2-hydroxyethyl)(8-oxo-8-((4-pentylcyclohexyl)oxy)octyl)amino)octanoate] | 5.01E+09 | 4.20E+06 | 2.00E+07 | 0.103 | 6.28 | 8.20 | 6.76E+11 | 9.66E+10 | 4.577E+10 | 5.56E+09 | highest | – | – | – |
| 92.54 | 0.14 | 130.8 | – | – | – | CCCCCCCCCOC(=O)CCCCCCCN(CCO)CCCCCCCC(=O)OC(CCC)CCC [Compound 58, heptan-4-yl 8-((2-hydroxyethyl)(8-(nonyloxy)-8-oxooctyl)amino) octanoate] | 8.71E+04 | 1.21E+04 | 2.38E+05 | 0.00007 | – | – | – | 5.69E+05 | 7.60E+05 | 3.64E+05 | – | – | lowest | significantly lower flux |
| 99.7 | 0.11 | 64.5 | – | – | – | CCCCCCCCCOC(=O)CCCCCCCN(CCCCCCCC(=O)OC(CCCCCCCC)CCCCCCCC)CCCn1ccc(N)nc1=O [Compound 115, Heptadecan-9-yl 8-((3-(4-amino-2-oxopyrimidin-1(2H)-yl)propyl)(8-(nonyloxy)-8-oxooctyl)amino)octanoate] | – | – | – | – | – | – | – | 2.13E+07 | 2.91E+07 | – | – | – | – | – |
| −15.1 | – | 53.5 | – | – | – | CCCCCCCCCOC(=O)CCCCCCCN(CCC#N)CCCCCCCC(=O)OC(CCCCCCCC)CCCCCCCC [Compound 21, Heptadecan-9-yl 8-((2-cyanoethyl)(8-(nonyloxy)-8-oxooctyl)amino) octanoate] | – | – | – | – | – | – | – | – | – | – | – | – | – | – |
| 94.44 | 0.24 | 237.0 | – | – | – | CCCCCCCCCOC(=O)CCCCCCCN(CCO)CCCCCCCC(=O)OC(CC)CC [Compound 59, nonyl 8-((2-hydroxyethyl)(8-oxo-8-(pentan-3-yloxy)octyl)amino) octanoate] | 2.87E+05 | 4.41E+04 | 9.68E+04 | 0.00003 | – | – | – | 2.75E+05 | 2.79E+05 | 1.45E+05 | – | lowest | lowest | significantly lower flux |
